Results from ChEMBL document CHEMBL4152365, “Discovery of DS-6930, a potent selective PPARγ modulator. Part I: Lead identification” (Bioorg Med Chem, 2018).
pEC50: −log10 of the molar value.

Key:
[1] = test system: Rattus norvegicus; experiment: Toxicity in Zucker diabetic fatty rat assessed as body weight gain at 0.3 mg/kg, po administered once daily for 14 days relative to control; format: organism-based; conditions: in vivo, 336 h
[2] = AUC (0 to 24 hrs) in Wistar-Imamichi rat at 30 mg/kg, po via gavage once daily for 28 days measured on day 28 post dose; format: ADME, organism-based; set-up: time < 24 hr, dose 30 mg/kg, route oral; conditions: in vivo
[3] = Tmax in Wistar-Imamichi rat at 300 mg/kg, po via gavage once daily for 28 days measured on day 28 post dose; format: ADME, organism-based; conditions: in vivo
[4] = test system: Rattus norvegicus; experiment: Glucose-lowering effect in Zucker diabetic fatty rat assessed as reduction in plasma glucose level at 30 mg/kg, po administered once daily for 14 days measured on day 14 post last dose relative to control; format: functional; set-up: scale not given: the % may be the effect or the level left
[5] = Cmax in Wistar-Imamichi rat at 100 mg/kg, po via gavage once daily for 28 days measured on day 28 post dose; format: ADME, organism-based; set-up: dose 100 mg/kg, route oral; conditions: in vivo
[6] = AUC (0 to 24 hrs) in Zucker diabetic fatty rat at 30 mg/kg, po dosed once daily for 14 days and followed by additional administeration on day 15; format: ADME, organism-based; set-up: time < 24 hr, dose 30 mg/kg, route oral; conditions: in vivo
[7] = test system: Rattus norvegicus; experiment: Toxicity in Wistar-Imamichi rat assessed as elevation in ALT activity at 30 to 300 mg/kg, po administered via gavage once daily for 28 days; format: organism-based; conditions: in vivo, 672 h
[8] = test system: Mus musculus; experiment: Toxicity in hyperglycemic KK/Ta mouse assessed as body weight gain at 30 mg/kg/day, po administered through diet for 3 days relative to control; format: organism-based; conditions: in vivo, 72 h
[9] = test system: Rattus norvegicus; experiment: Toxicity in Wistar-Imamichi rat assessed as death at 30 to 300 mg/kg, po administered via gavage once daily for 28 days; format: organism-based; conditions: in vivo, 672 h
[10] = Tmax in Zucker diabetic fatty rat at 3 mg/kg, po dosed once daily for 14 days and followed by additional administeration on day 15; format: ADME, organism-based; conditions: in vivo
[11] = target: T1, Peroxisome proliferator-activated receptor alpha (Homo sapiens, UniProt Q07869); experiment: Agonist activity at recombinant human GAL4-DBD fused PPARalpha LBD expressed in COS7 cells after 24 hrs by luciferase reporter gene assay; format: cell-based
T1 sequence (Q07869 whole entry): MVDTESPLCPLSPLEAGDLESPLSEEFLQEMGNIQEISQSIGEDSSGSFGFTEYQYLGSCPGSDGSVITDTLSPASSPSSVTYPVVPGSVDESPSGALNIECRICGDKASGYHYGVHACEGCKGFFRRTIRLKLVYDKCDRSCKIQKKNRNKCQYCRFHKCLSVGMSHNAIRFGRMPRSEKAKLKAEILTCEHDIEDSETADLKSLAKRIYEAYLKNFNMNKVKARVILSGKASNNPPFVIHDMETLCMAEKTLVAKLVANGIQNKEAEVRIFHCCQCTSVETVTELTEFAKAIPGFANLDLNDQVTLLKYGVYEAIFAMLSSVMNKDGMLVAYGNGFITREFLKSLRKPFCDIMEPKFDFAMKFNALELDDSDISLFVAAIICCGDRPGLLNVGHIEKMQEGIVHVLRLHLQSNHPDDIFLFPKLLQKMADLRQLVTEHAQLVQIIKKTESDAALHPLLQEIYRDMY

[12] = Cmax in Zucker diabetic fatty rat at 0.3 mg/kg, po dosed once daily for 14 days and followed by additional administeration on day 15; format: ADME, organism-based; set-up: dose 0.3 mg/kg, route oral; conditions: in vivo
[13] = Tmax in Zucker diabetic fatty rat at 0.3 mg/kg, po dosed once daily for 14 days and followed by additional administeration on day 15; format: ADME, organism-based; conditions: in vivo
[14] = Tmax in Zucker diabetic fatty rat at 30 mg/kg, po dosed once daily for 14 days and followed by additional administeration on day 15; format: ADME, organism-based; conditions: in vivo
[15] = test system: Rattus norvegicus; experiment: Toxicity in Wistar-Imamichi rat assessed as clinical abnormality at 30 to 300 mg/kg, po administered via gavage once daily for 28 days; format: organism-based; conditions: in vivo, 672 h
[16] = test system: Rattus norvegicus; experiment: Toxicity in Zucker diabetic fatty rat assessed as body weight gain at 30 mg/kg, po administered once daily for 14 days relative to control; format: organism-based; conditions: in vivo, 336 h
[17] = test system: Rattus norvegicus; experiment: Glucose-lowering effect in Zucker diabetic fatty rat assessed as reduction in plasma glucose level at 3 mg/kg, po administered once daily for 14 days measured on day 14 post last dose relative to control; format: functional; set-up: scale not given: the % may be the effect or the level left
[18] = Cmax in Wistar-Imamichi rat at 30 mg/kg, po via gavage once daily for 28 days measured on day 28 post dose; format: ADME, organism-based; set-up: dose 30 mg/kg, route oral; conditions: in vivo
[19] = test system: Rattus norvegicus; experiment: Toxicity in Wistar-Imamichi rat assessed as histopathological changes in liver at 30 to 300 mg/kg, po administered via gavage once daily for 28 days; format: organism-based; conditions: in vivo, 672 h
[20] = AUC (0 to 24 hrs) in Zucker diabetic fatty rat at 3 mg/kg, po dosed once daily for 14 days and followed by additional administeration on day 15; format: ADME, organism-based; set-up: dose 3 mg/kg, time < 24 hr, route oral; conditions: in vivo
[21] = Cmax in Wistar-Imamichi rat at 0.3 mg/kg, po via gavage once daily for 28 days measured on day 28 post dose; format: ADME, organism-based; set-up: dose 0.3 mg/kg, route oral; conditions: in vivo
[22] = test system: Rattus norvegicus; experiment: Toxicity in Wistar-Imamichi rat assessed as effect on hematocrit at 30 to 300 mg/kg, po administered via gavage once daily for 28 days; format: organism-based; conditions: in vivo, 672 h
[23] = Metabolic stability in rat liver microsomes after 0.5 hrs; format: ADME, microsome; conditions: read-out: Stability
[24] = Cmax in Zucker diabetic fatty rat at 3 mg/kg, po dosed once daily for 14 days and followed by additional administeration on day 15; format: ADME, organism-based; set-up: dose 3 mg/kg, route oral; conditions: in vivo
[25] = test system: Rattus norvegicus; experiment: Toxicity in Wistar-Imamichi rat assessed as effect on hemodilution by measuring increase in heart weight at 300 mg/kg, po administered via gavage once daily for 28 days; format: organism-based; conditions: in vivo, 672 h
[26] = test system: Rattus norvegicus; experiment: Toxicity in Zucker diabetic fatty rat assessed as body weight gain administered orally once daily for 14 day; format: organism-based; conditions: in vivo, po, 336 h
[27] = test system: Rattus norvegicus; experiment: Toxicity in Zucker diabetic fatty rat assessed as body weight gain at 3 mg/kg, po administered once daily for 14 days relative to control; format: organism-based; conditions: in vivo, 336 h
[28] = AUC (0 to 24 hrs) in Zucker diabetic fatty rat at 0.3 mg/kg, po dosed once daily for 14 days and followed by additional administeration on day 15; format: ADME, organism-based; set-up: time < 24 hr, dose 0.3 mg/kg, route oral; conditions: in vivo
[29] = AUC (0 to 24 hrs) in Wistar-Imamichi rat at 300 mg/kg, po via gavage once daily for 28 days measured on day 28 post dose; format: ADME, organism-based; set-up: dose 300 mg/kg, time < 24 hr, route oral; conditions: in vivo
[30] = test system: Mus musculus; experiment: Glucose-lowering effect in hyperglycemic KK/Ta mouse assessed as reduction in plasma glucose level at 30 mg/kg/day, po administered through diet for 3 days relative to control; format: functional; set-up: scale not given: the % may be the effect or the level left
[31] = test system: Rattus norvegicus; experiment: Toxicity in Wistar-Imamichi rat assessed as elevation in AST activity at 30 to 300 mg/kg, po administered via gavage once daily for 28 days; format: organism-based; conditions: in vivo, 672 h
[32] = Cmax in Wistar-Imamichi rat at 300 mg/kg, po via gavage once daily for 28 days measured on day 28 post dose; format: ADME, organism-based; set-up: dose 300 mg/kg, route oral; conditions: in vivo
[33] = AUC (0 to 24 hrs) in Wistar-Imamichi rat at 100 mg/kg, po via gavage once daily for 28 days measured on day 28 post dose; format: ADME, organism-based; set-up: time < 24 hr, dose 100 mg/kg, route oral; conditions: in vivo
[34] = Plasma concentration in hyperglycemic KK/Ta mouse at 30 mg/kg/day, po administered through diet for 3 days measured on day 3 post last dose; format: ADME, organism-based
[35] = Cmax in Zucker diabetic fatty rat at 30 mg/kg, po dosed once daily for 14 days and followed by additional administeration on day 15; format: ADME, organism-based; set-up: dose 30 mg/kg, route oral; conditions: in vivo
[36] = Tmax in Wistar-Imamichi rat at 30 mg/kg, po via gavage once daily for 28 days measured on day 28 post dose; format: ADME, organism-based; conditions: in vivo
[37] = AUC (0 to 24 hrs) in Wistar-Imamichi rat at 0.3 mg/kg, po via gavage once daily for 28 days measured on day 28 post dose; format: ADME, organism-based; set-up: time < 24 hr, dose 0.3 mg/kg, route oral; conditions: in vivo
[38] = Tmax in Wistar-Imamichi rat at 100 mg/kg, po via gavage once daily for 28 days measured on day 28 post dose; format: ADME, organism-based; conditions: in vivo
[39] = test system: Rattus norvegicus; experiment: Toxicity in Wistar-Imamichi rat assessed as reduction in RBC count at 30 to 300 mg/kg, po administered via gavage once daily for 28 days; format: organism-based; conditions: in vivo, 672 h
[40] = test system: Rattus norvegicus; experiment: Glucose-lowering effect in Zucker diabetic fatty rat assessed as reduction in plasma glucose level at 0.3 mg/kg, po administered once daily for 14 days measured on day 14 post last dose relative to control; format: functional; set-up: scale not given: the % may be the effect or the level left

`Cn1c(COc2cccc(C(=O)O)c2)nc2ccc(Oc3ccc(Cl)c(F)c3)cc21` gave an Activity [1] of 2.3%, an AUC at 24 h [2] of 93700 ng·h/mL and a Tmax [3] of 3 h. It also gave an Activity [4] of 74.9%, a Cmax [5] of 14900 ng/mL and an AUC at 24 h [6] of 55800 ng·h/mL. The Activity [7] was “Toxic”, the Activity [8] was 4.4% and the Activity [9] was “Non-Toxic”. The Tmax [10] was 2.4 h, the pEC50 [11] was under 5.00 and the Cmax [12] was 180 ng/mL. The Tmax [13] was 6.8 h, the Tmax [14] was 2 h and the Activity [15] was “Non-Toxic”. It also gave an Activity [16] of 16.7%, an Activity [17] of 43.8% and a Cmax [18] of 9100 ng/mL. For the same molecule, the Activity [19] was “Non-Toxic”, the AUC at 24 h [20] was 6750 ng·h/mL and the Cmax [21] was 180 ng/mL. For the same molecule, the Activity [22] was “Non-Toxic”, the remaining at 0.5 h [23] was 94% and the Cmax [24] was 920 ng/mL. The Activity [25] was 9.9%, the Activity [26] was “Dose-dependent effect” and the Activity [27] was 12.4%. For the same molecule, the AUC at 24 h [28] was 1740 ng·h/mL, the AUC at 24 h [29] was 190000 ng·h/mL and the Activity [30] was 43.2%. The Activity [31] was “Toxic”, the Cmax [32] was 22600 ng/mL and the AUC at 24 h [33] was 192000 ng·h/mL. It also gave a concentration at 72 h [34] of 570 ng/mL, a Cmax [35] of 8080 ng/mL and a Tmax [36] of 4 h. For the same molecule, the AUC at 24 h [37] was 1740 ng·h/mL, the Tmax [38] was 5 h and the Activity [39] was “Non-Toxic”. For the same molecule, the Activity [40] was 16.6%.
